Experimental data reported in patent publication US12077503B2, “Substituted cyclic amides and their use as herbicides” (FMC CORPORATION, priority 2015, dated 2024).
Like-named read-outs stand apart in the source and are kept apart here.

Experiments:
[1] = tested on: Galium (catchweed bedstraw, Galium aparine); assay: Test A postemergence; type: in vivo; conditions: Galium, post-emergence, 240 h; for pest or weed control at 125 g/ha: 125 g ai/ha; for pest or weed control at 31 g/ha: 31 g ai/ha, visual injury after approx. 10 d, 0 no effect, 100 complete control; for pest or weed control at 500 g/ha: 500 g ai/ha
Method in brief: (§1)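 Each rating is a visual injury score from 0 to 100 given about 10 d after treatment, judged against untreated controls kept alongside in the greenhouse. In loam soil–sand blend, seeds got a preemergence directed soil spray, while postemergence plants were 2 to 10 cm tall at spraying.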

corn (Zea mays) = assay: Test A postemergence; type: in vivo; conditions: Zea mays, post-emergence, 240 h; for Corn plant response rating (crop injury, 0 = no effect, 100 = complete kill) at 125 g/ha / plant injury at 125 g/ha: 125 g ai/ha; for Corn plant response rating (crop injury, 0 = no effect, 100 = complete kill) at 125 g/ha: visual injury after approximately 10 d; for Corn plant response rating (crop injury, 0 = no effect, 100 = complete kill) at 31 g/ha: 31 g ai/ha, visual injury after approx. 10 d, 100 complete control; for plant injury at 125 g/ha: read-out: Corn plant response rating (0 to 100 scale); for Corn plant response rating (crop injury, 0 = no effect, 100 = complete kill) at 500 g/ha: visual injury, approx. 10 d
Method in brief: as §1

[2] = tested on: pigweed (Amaranthus retroflexus); assay: Test A postemergence; type: in vivo; conditions: Amaranthus retroflexus, post-emergence, 240 h; for pest or weed control at 125 g/ha: 125 g ai/ha; for pest or weed control at 31 g/ha: 31 g ai/ha, visual injury after approx. 10 d, 0 no effect, 100 complete control; for pest or weed control at 500 g/ha: 500 g ai/ha
Method in brief: as §1

[3] = tested on: ryegrass, Italian (Italian ryegrass, Lolium multiflorum); assay: Test A postemergence; type: in vivo; conditions: Lolium multiflorum, post-emergence, 240 h; for pest or weed control at 125 g/ha: 125 g ai/ha; for pest or weed control at 31 g/ha: 31 g ai/ha, visual injury after approx. 10 d, 0 no effect, 100 complete control; for pest or weed control at 500 g/ha: 500 g ai/ha
Method in brief: as §1

[4] = tested on: wheat (Triticum aestivum); assay: Test A postemergence; type: in vivo; conditions: Triticum aestivum, post-emergence, 240 h; for plant injury at 31 g/ha: 31 g ai/ha, visual injury after approx. 10 d, 0 no effect, 100 complete control; for plant injury at 125 g/ha: 125 g ai/ha; for plant injury at 500 g/ha: 500 g ai/ha
Method in brief: as §1

[5] = postemergence, visual injury after approximately 10 d, 0 to 100 scale (0 no effect, 100 complete control), read-out: Plant response rating, Galium
[6] = Postemergence, 0 to 100 scale, read-out: Plant response rating, Galium
[7] = postemergence, 0 to 100 scale (0 no effect, 100 complete control)
[8] = postemergence, visual injury after approximately 10 d, 0 to 100 scale (0 no effect, 100 complete control), read-out: Plant response rating, Pigweed
[9] = Postemergence, 0 to 100 scale, read-out: Plant response rating, Pigweed
[10] = postemergence, visual injury after approximately 10 d, 0 to 100 scale (0 no effect, 100 complete control), read-out: Plant response rating, Ryegrass, Italian
[11] = Postemergence, 0 to 100 scale, read-out: Plant response rating, Ryegrass, Italian
[12] = Postemergence, 0 to 100 scale, read-out: Plant response rating, Wheat
[13] = Postemergence, visual injury after approximately 10 d, 0 to 100 scale where 0 is no effect and 100 is complete control, read-out: Plant response rating, Galium
[14] = Postemergence, 0 to 100 scale where 0 is no effect and 100 is complete control
[15] = Postemergence, visual injury after approximately 10 d, 0 to 100 scale where 0 is no effect and 100 is complete control, read-out: Plant response rating, Pigweed
[16] = Postemergence, visual injury after approximately 10 d, 0 to 100 scale where 0 is no effect and 100 is complete control, read-out: Plant response rating, Ryegrass, Italian
[17] = Postemergence, visual injury after approximately 10 d, 0 to 100 scale where 0 is no effect and 100 is complete control, read-out: Plant response rating, Wheat
[18] = Postemergence, visual rating about 10 d after treatment, read-out: Galium plant response rating (0 to 100 scale)
[19] = Postemergence, visual injury, 0 to 100 scale (0 no effect, 100 complete control), approx. 10 d, read-out: Plant response rating, Galium
[20] = Postemergence, visual rating about 10 d after treatment
[21] = Postemergence, 500 g ai/ha, 0 to 100 scale (0 no effect, 100 complete control)
[22] = Postemergence, visual rating about 10 d after treatment, read-out: Pigweed plant response rating (0 to 100 scale)
[23] = Postemergence, visual injury, 0 to 100 scale (0 no effect, 100 complete control), approx. 10 d, read-out: Plant response rating, Pigweed
[24] = Postemergence, visual rating about 10 d after treatment, read-out: Ryegrass, Italian plant response rating (0 to 100 scale)
[25] = Postemergence, visual injury, 0 to 100 scale (0 no effect, 100 complete control), approx. 10 d, read-out: Plant response rating, Ryegrass, Italian
[26] = Postemergence, visual rating about 10 d after treatment, read-out: Wheat plant response rating (0 to 100 scale)
[27] = Postemergence, visual injury, 0 to 100 scale (0 no effect, 100 complete control), approx. 10 d, read-out: Plant response rating, Wheat

C/C=C/C1CNC(=O)C1C(=O)Nc1ccccc1F (centres unmarked) [Compound 792]
133 to 137 °C: melting point
0%: pest or weed control at 125 g/ha [1, 5] | pest or weed control at 31 g/ha [1, 6] | Corn plant response rating (crop injury, 0 = no effect, 100 = complete kill) at 125 g/ha (corn (Zea mays); [7]) | Corn plant response rating (crop injury, 0 = no effect, 100 = complete kill) at 31 g/ha (corn (Zea mays); Postemergence, 0 to 100 scale) | pest or weed control at 125 g/ha [2, 8] | pest or weed control at 31 g/ha [2, 9] | pest or weed control at 125 g/ha [3, 10] | pest or weed control at 31 g/ha [3, 11] | plant injury at 31 g/ha [4, 12]

O=C1NCC[C@H](c2ccc(Cl)cc2)[C@H]1C(=O)Nc1cccc(F)c1F [Compound 795]
86 to 89 °C: melting point
0%: pest or weed control at 125 g/ha [1, 5] | pest or weed control at 31 g/ha [1, 6] | Corn plant response rating (crop injury, 0 = no effect, 100 = complete kill) at 125 g/ha (corn (Zea mays); [7]) | Corn plant response rating (crop injury, 0 = no effect, 100 = complete kill) at 31 g/ha (corn (Zea mays); Postemergence, 0 to 100 scale) | pest or weed control at 125 g/ha [2, 8] | pest or weed control at 31 g/ha [2, 9] | pest or weed control at 125 g/ha [3, 10] | pest or weed control at 31 g/ha [3, 11] | plant injury at 31 g/ha [4, 12]

CCc1ccccc1NC(=O)[C@H]1C(=O)N(C)C[C@@H]1c1ccc(C(F)(F)F)cc1 [Compound 935]
40%: pest or weed control at 125 g/ha [1, 13] | Corn plant response rating (crop injury, 0 = no effect, 100 = complete kill) at 125 g/ha (corn (Zea mays); [14])
20%: pest or weed control at 125 g/ha [2, 15] | pest or weed control at 125 g/ha [3, 16]
30%: plant injury at 125 g/ha [4, 17]
116 to 119 °C: melting point

CN1C[C@H](c2ccc(C(F)(F)F)cc2)[C@@H](C(=O)Nc2cccc(F)c2Cl)C1=O [Compound 938]
60%: Corn plant response rating (crop injury, 0 = no effect, 100 = complete kill) at 125 g/ha (corn (Zea mays); [14])
169 to 172 °C: melting point
40%: plant injury at 125 g/ha [4, 17]
50%: pest or weed control at 125 g/ha [1, 13] | pest or weed control at 125 g/ha [2, 15]
20%: pest or weed control at 125 g/ha [3, 16]

O=C1NC[C@H](c2cccc(C(F)(F)F)n2)[C@H]1C(=O)Nc1ccccc1F [Compound 940]
164 to 167 °C: melting point
0%: pest or weed control at 125 g/ha [1, 13] | Corn plant response rating (crop injury, 0 = no effect, 100 = complete kill) at 125 g/ha (corn (Zea mays); [14]) | pest or weed control at 125 g/ha [2, 15] | pest or weed control at 125 g/ha [3, 16] | plant injury at 125 g/ha [4, 17]

Cc1cc([C@H]2CN(C)C(=O)[C@@H]2C(=O)Nc2cccc(F)c2F)on1 [Compound 1196]
144 to 148 °C: melting point
0%: pest or weed control at 125 g/ha ([1]; postemergence, visual injury vs untreated controls after approx. 10 d, 0 = no effect, 100 = complete control, read-out: Galium plant response rating (0 to 100 scale)) | pest or weed control at 500 g/ha ([1]; postemergence, 0 to 100 scale, 0 is no effect, 100 is complete control, read-out: Galium plant response rating) | plant injury at 125 g/ha (corn (Zea mays); postemergence, visual injury vs untreated controls after approx. 10 d, 0 = no effect, 100 = complete control) | plant injury at 500 g/ha (corn (Zea mays); 500 g ai/ha, postemergence, 0 to 100 scale, 0 is no effect, 100 is complete control, read-out: Corn plant response rating) | pest or weed control at 125 g/ha ([2]; postemergence, visual injury vs untreated controls after approx. 10 d, 0 = no effect, 100 = complete control, read-out: Pigweed plant response rating (0 to 100 scale)) | pest or weed control at 500 g/ha ([2]; postemergence, 0 to 100 scale, 0 is no effect, 100 is complete control, read-out: Pigweed plant response rating) | pest or weed control at 125 g/ha ([3]; postemergence, visual injury vs untreated controls after approx. 10 d, 0 = no effect, 100 = complete control, read-out: Ryegrass, Italian plant response rating (0 to 100 scale)) | pest or weed control at 500 g/ha ([3]; postemergence, 0 to 100 scale, 0 is no effect, 100 is complete control, read-out: Ryegrass, Italian plant response rating) | plant injury at 125 g/ha ([4]; postemergence, visual injury vs untreated controls after approx. 10 d, 0 = no effect, 100 = complete control, read-out: Wheat plant response rating (0 to 100 scale)) | plant injury at 500 g/ha ([4]; postemergence, 0 to 100 scale, 0 is no effect, 100 is complete control, read-out: Wheat plant response rating)

O=C1NC[C@H](c2nccc(C(F)(F)F)n2)[C@H]1C(=O)Nc1ccccc1F [Compound 1304]
0%: pest or weed control at 125 g/ha [1, 18] | pest or weed control at 500 g/ha [1, 19] | plant injury at 125 g/ha (corn (Zea mays); [20]) | Corn plant response rating (crop injury, 0 = no effect, 100 = complete kill) at 500 g/ha (corn (Zea mays); [21]) | pest or weed control at 125 g/ha [2, 22] | pest or weed control at 500 g/ha [2, 23] | pest or weed control at 125 g/ha [3, 24] | pest or weed control at 500 g/ha [3, 25] | plant injury at 125 g/ha [4, 26] | plant injury at 500 g/ha [4, 27]
166 to 170 °C: melting point

O=C1NC[C@H](c2cncs2)[C@H]1C(=O)Nc1cccc(F)c1F [Compound 1336]
0%: pest or weed control at 125 g/ha [1, 18] | pest or weed control at 500 g/ha [1, 19] | plant injury at 125 g/ha (corn (Zea mays); [20]) | Corn plant response rating (crop injury, 0 = no effect, 100 = complete kill) at 500 g/ha (corn (Zea mays); [21]) | pest or weed control at 125 g/ha [2, 22] | pest or weed control at 500 g/ha [2, 23] | pest or weed control at 125 g/ha [3, 24] | pest or weed control at 500 g/ha [3, 25] | plant injury at 125 g/ha [4, 26] | plant injury at 500 g/ha [4, 27]
111 to 142 °C: melting point
